Assays:
[1] = target: T1, human AT1 receptor (Homo sapiens, UniProt P30556); experiment: AT1 receptor antagonistic activity: [125I]-angiotensin II binding assay on human AT1 receptor-expressing CHO-K1 cellular membrane fraction; settings: 22.5 pM [125I]-angiotensin II, 1 hr room temperature
T1 construct: expressed in transfected cells; membrane fraction
T1 sequence (P30556 1-359): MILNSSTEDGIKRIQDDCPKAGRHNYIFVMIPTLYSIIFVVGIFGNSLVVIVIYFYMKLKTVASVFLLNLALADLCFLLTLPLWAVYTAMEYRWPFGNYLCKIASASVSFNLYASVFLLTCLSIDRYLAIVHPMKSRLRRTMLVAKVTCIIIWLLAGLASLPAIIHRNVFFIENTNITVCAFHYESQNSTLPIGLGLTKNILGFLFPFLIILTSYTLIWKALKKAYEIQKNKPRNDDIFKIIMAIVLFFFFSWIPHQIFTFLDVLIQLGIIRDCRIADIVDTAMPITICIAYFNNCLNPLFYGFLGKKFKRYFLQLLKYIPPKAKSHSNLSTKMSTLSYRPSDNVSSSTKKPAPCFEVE
Outline: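 Competition binding used radiolabelled angiotensin II on stably transfected CHO-K1 membrane fractions in Tris pH 7.4/MgCl2 buffer, optionally containing 0.3 mg/mL fatty acid-free BSA, 1 hr at room temperature. Filtration onto GF/C separated bound tracer, and nonspecific binding was measured with candesartan.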

[2] = target: T2, human PPARγ (Homo sapiens, UniProt P37231); experiment: PPARγ agonistic activity: luciferase reporter assay in PPARγ:RXRα:4ERPP/CHO-K1 cells; assay type: cell-based; settings: CHO-K1, test compound 10^−6 M; luciferase activity of control compound X (1 μM) = 100%, non-administration group = 0%
T2 construct: expressed in transfected cells
T2 sequence (P37231 1-477 isoform P37231-2): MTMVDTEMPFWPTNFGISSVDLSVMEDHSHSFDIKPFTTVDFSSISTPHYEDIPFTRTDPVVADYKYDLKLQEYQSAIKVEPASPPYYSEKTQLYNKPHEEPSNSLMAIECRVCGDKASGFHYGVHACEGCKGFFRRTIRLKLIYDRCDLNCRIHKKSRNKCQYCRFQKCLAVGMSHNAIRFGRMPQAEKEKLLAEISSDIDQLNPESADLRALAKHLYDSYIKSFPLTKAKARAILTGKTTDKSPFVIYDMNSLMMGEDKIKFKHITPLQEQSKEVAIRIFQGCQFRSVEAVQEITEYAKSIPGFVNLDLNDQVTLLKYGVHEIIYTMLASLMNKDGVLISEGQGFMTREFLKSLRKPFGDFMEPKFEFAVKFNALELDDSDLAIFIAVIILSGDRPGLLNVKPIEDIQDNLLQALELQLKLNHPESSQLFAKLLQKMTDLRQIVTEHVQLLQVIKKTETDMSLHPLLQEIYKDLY
T2 sequence (P19793 1-462 partner): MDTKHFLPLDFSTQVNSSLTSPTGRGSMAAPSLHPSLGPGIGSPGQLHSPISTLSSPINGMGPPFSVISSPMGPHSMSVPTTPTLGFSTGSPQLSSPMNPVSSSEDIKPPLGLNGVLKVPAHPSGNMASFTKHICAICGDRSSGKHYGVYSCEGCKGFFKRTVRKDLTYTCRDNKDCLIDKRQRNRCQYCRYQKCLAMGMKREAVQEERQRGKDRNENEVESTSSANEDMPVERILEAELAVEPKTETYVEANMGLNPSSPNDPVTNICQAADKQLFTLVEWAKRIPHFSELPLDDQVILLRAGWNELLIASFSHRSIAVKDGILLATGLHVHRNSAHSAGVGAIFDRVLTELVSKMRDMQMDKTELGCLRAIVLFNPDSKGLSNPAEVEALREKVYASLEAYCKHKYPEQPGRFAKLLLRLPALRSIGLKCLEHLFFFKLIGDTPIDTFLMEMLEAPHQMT
Outline: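 Activity is expressed relative to untreated cells (0%) and 1 μM reference compound X (100%), from luciferase luminescence. Reporter line: PPARγ:RXRα:4ERPP/CHO-K1, exposed to compound for one day at 37 °C in F12 medium containing 0.1% fatty-acid-free BSA.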

SMILES	IC50 [1]	activation at 1 µM [2]
CCCCc1c(Cc2ccc(-c3ccccc3-c3noc(=O)[nH]3)cc2)c(=O)n(C2CCOC(C)(C)C2)c2ncnn12 (stereo not shown) [Example 134, 7-butyl-4-(2,2-dimethyltetrahydro-2H-pyran-4-yl)-6-{[2′-(5-oxo-4,5-dihydro-1,2,4-oxadiazol-3-yl)biphenyl-4-yl]methyl}[1,2,4]triazolo[1,5-a]pyrimidin-5(4H)-one]	1.3 nM	26%
CCCc1c(Cc2ccc(-c3ccccc3-c3noc(=O)[nH]3)cc2)c(=O)n(CC2(C)CC2)c2nc(C)nn12 [Example 69, 2-methyl-4-[(1-methylcyclopropyl)methyl]-6-{[2′-(5-oxo-4,5-dihydro-1,2,4-oxadiazol-3-yl)biphenyl-4-yl]methyl}-7-propyl[1,2,4]triazolo[1,5-a]pyrimidin-5(4H)-one]	1.4 nM	27%
CCCc1c(Cc2ccc(-c3ccccc3-c3noc(=O)[nH]3)cc2)c(=O)n([C@H]2CC[C@H](OCC3(CO)CCC3)CC2)c2ncnn12 [Example 228, 4-(trans-4-{[1-(hydroxymethyl)cyclobutyl]methoxy}cyclohexyl)-6-{[2′-(5-oxo-4,5-dihydro-1,2,4-oxadiazol-3-yl)biphenyl-4-yl]methyl}-7-propyl[1,2,4]triazolo[1,5-a]pyrimidin-5(4H)-one]	1.5 nM	27%
CCCc1c(Cc2ccc(-c3ccccc3-c3noc(=O)[nH]3)c(C)c2)c(=O)n([C@H]2CC[C@H](OCC(C)(C)O)CC2)c2nc(C)nn12 [Example 155, 4-[trans-4-(2-hydroxy-2-methylpropoxy)cyclohexyl]-2-methyl-6-{[2-methyl-2′-(5-oxo-4,5-dihydro-1,2,4-oxadiazol-3-yl)biphenyl-4-yl]methyl}-7-propyl[1,2,4]triazolo[1,5-a]pyrimidin-5(4H)-one]	1.6 nM	18%
C=C1COC2(CCC(n3c(=O)c(Cc4ccc(-c5ccccc5-c5noc(=O)[nH]5)cc4)c(CCC)n4ncnc34)CC2)OC1 [Example 285, 4-(3-methylidene-1,5-dioxaspiro[5.5]undec-9-yl)-6-{[2′-(5-oxo-4,5-dihydro-1,2,4-oxadiazol-3-yl)biphenyl-4-yl]methyl}-7-propyl[1,2,4]triazolo[1,5-a]pyrimidin-5(4H)-one]	3.1 nM	34%
CCCc1c(Cc2ccc(-c3ccccc3-c3noc(=O)[nH]3)cc2)c(=O)n([C@H]2CC[C@H](OC(C)C#N)CC2)c2ncnn12 (stereo partly drawn) [Example 244, 2-({trans-4-[5-oxo-6-{[2′-(5-oxo-4,5-dihydro-1,2,4-oxadiazol-3-yl)biphenyl-4-yl]methyl}-7-propyl[1,2,4]triazolo[1,5-a]pyrimidin-4(5H)-yl]cyclohexyl}oxy)propanenitrile]	2.3 nM	29%
CCCc1c(Cc2ccc(-c3ccccc3-c3noc(=O)[nH]3)cc2)c(=O)n(C2CCC2)c2nc(C)nn12 [Example 83, 4-cyclobutyl-2-methyl-6-{[2′-(5-oxo-4,5-dihydro-1,2,4-oxadiazol-3-yl)biphenyl-4-yl]methyl}-7-propyl[1,2,4]triazolo[1,5-a]pyrimidin-5(4H)-one]	1.5 nM	16%
CCCc1c(Cc2ccc(-c3ccccc3-c3noc(=O)[nH]3)cc2)c(=O)n([C@H]2CC[C@H](OCC(O)CC)CC2)c2ncnn12 (stereo partly drawn) [Example 326, 4-[trans-4-(2-hydroxybutoxy)cyclohexyl]-6-{[2′-(5-oxo-4,5-dihydro-1,2,4-oxadiazol-3-yl)biphenyl-4-yl]methyl}-7-propyl[1,2,4]triazolo[1,5-a]pyrimidin-5(4H)-one]	1.8 nM	29%
CCCc1c(Cc2ccc(-c3ccccc3-c3noc(=O)[nH]3)cc2)c(=O)n(C2CCC3(CC2)OCC(C)(C)O3)c2ncnn12 (stereo not shown) [Example 179, 4-(2,2-dimethyl-1,4-dioxaspiro[4.5]dec-8-yl)-6-{[2′-(5-oxo-4,5-dihydro-1,2,4-oxadiazol-3-yl)biphenyl-4-yl]methyl}-7-propyl[1,2,4]triazolo[1,5-a]pyrimidin-5(4H)-one]	1.9 nM	41%
CCCc1c(Cc2ccc(-c3ccccc3-c3noc(=O)[nH]3)cc2)c(=O)n([C@H]2CC[C@@](C)(O)CC2)c2ncnn12 [Example 275, 4-(cis-4-hydroxy-4-methylcyclohexyl)-6-{[2′-(5-oxo-4,5-dihydro-1,2,4-oxadiazol-3-yl)biphenyl-4-yl]methyl}-7-propyl[1,2,4]triazolo[1,5-a]pyrimidin-5(4H)-one]	2.5 nM	31%
CCCc1c(Cc2ccc(-c3ccccc3-c3noc(=O)[nH]3)cc2)c(=O)n([C@H]2CC[C@H](OC(C)C(C)O)CC2)c2ncnn12 (stereo partly drawn) [Example 299, 4-[trans-4-(2-hydroxy-1-methylpropoxy)cyclohexyl]-6-{[2′-(5-oxo-4,5-dihydro-1,2,4-oxadiazol-3-yl)biphenyl-4-yl]methyl}-7-propyl[1,2,4]triazolo[1,5-a]pyrimidin-5(4H)-one]	1.8 nM	19%
CCCc1c(Cc2ccc(-c3ccccc3-c3noc(=O)[nH]3)cc2F)c(=O)n([C@H]2CC[C@H](OCC(C)O)CC2)c2ccnn12 (relative stereo) [Example 437, 6-{[3-fluoro-2′-(5-oxo-4,5-dihydro-1,2,4-oxadiazol-3-yl)biphenyl-4-yl]methyl}-4-[trans-4-(2-hydroxypropoxy)cyclohexyl]-7-propylpyrazolo[1,5-a]pyrimidin-5(4H)-one]	1.6 nM	30%

Continued, values first:

IC50 [1]	activation at 1 µM [2]	SMILES
1.9 nM	16%	CCCc1c(Cc2ccc(-c3ccccc3-c3noc(=O)[nH]3)cc2)c(=O)n(C/C(=N\OCC)C(F)(F)F)c2nc(C)nn12 [Example 107, 4-[(2E)-2-(ethoxyimino)-3,3,3-trifluoropropyl]-2-methyl-6-{[2′-(5-oxo-4,5-dihydro-1,2,4-oxadiazol-3-yl)biphenyl-4-yl]methyl}-7-propyl[1,2,4]triazolo[1,5-a]pyrimidin-5(4H)-one]
1.6 nM	35%	CCCc1c(Cc2ccc(-c3ccccc3-c3noc(=O)[nH]3)cc2)c(=O)n([C@H]2CC[C@@]3(CCCO3)CC2)c2ncnn12 [Example 151, 4-[(5R,8R)-1-oxaspiro[4.5]dec-8-yl]-6-{[2′-(5-oxo-4,5-dihydro-1,2,4-oxadiazol-3-yl)biphenyl-4-yl]methyl}-7-propyl[1,2,4]triazolo[1,5-a]pyrimidin-5(4H)-one]
2.1 nM	31%	CCCc1c(Cc2ccc(-c3ccccc3-c3noc(=O)[nH]3)cc2)c(=O)n(C2CCC3(CC2)OCC(CO)O3)c2ncnn12 (stereo not shown) [Example 294, 4-[2-(hydroxymethyl)-1,4-dioxaspiro[4.5]dec-8-yl]-6-{[2′-(5-oxo-4,5-dihydro-1,2,4-oxadiazol-3-yl)biphenyl-4-yl]methyl}-7-propyl[1,2,4]triazolo[1,5-a]pyrimidin-5(4H)-one]
3.2 nM	16%	CCCc1c(Cc2ccc(-c3ccccc3-c3noc(=O)[nH]3)cc2)c(=O)n(C2CCN(Cc3ccccc3)CC2)c2ncnn12 [Example 373, 4-(1-benzylpiperidin-4-yl)-6-{[2′-(5-oxo-4,5-dihydro-1,2,4-oxadiazol-3-yl)biphenyl-4-yl]methyl}-7-propyl[1,2,4]triazolo[1,5-a]pyrimidin-5(4H)-one]
2.4 nM	40%	CCCc1c(Cc2ccc(-c3ccccc3-c3noc(=O)[nH]3)cc2F)c(=O)n([C@H]2CC[C@H](OCC3(O)CCC3)CC2)c2ncnn12 [Example 252, 6-{[3-fluoro-2′-(5-oxo-4,5-dihydro-1,2,4-oxadiazol-3-yl)biphenyl-4-yl]methyl}-4-{trans-4-[(1-hydroxycyclobutyl)methoxy]cyclohexyl}-7-propyl[1,2,4]triazolo[1,5-a]pyrimidin-5(4H)-one]

— patent US8283353B2, “Fused ring compound and use thereof” (Takeda Pharmaceutical Company Limited, priority 2009, dated 2012)
